Read-outs that look alike come from different tables or passages of the source.
Key:
[1] = Intestinal calcium transport (everted gut sac) in vitamin D-deficient rats; assay type: in vivo, rat; conditions: ip, 4 consecutive days
Method: (§1) Male, weanling Sprague-Dawley rats were placed on Diet 11 (0.47% Ca) diet+AEK oil for one week followed by Diet 11 (0.02% Ca)+AEK oil for 3 weeks. The rats were then switched to a diet containing 0.47% Ca for one week followed by two weeks on a diet containing 0.02% Ca. Dose administration began during the last week on 0.02% calcium diet. Four consecutive ip doses were given approximately 24 hours apart. Twenty-four hours after the last dose, blood was collected from the severed neck and the concentration of serum calcium determined as a measure of bone calcium mobilization. The first 10 cm of the intestine was also collected for intestinal calcium transport analysis using the everted gut sac method.

[2] = system: 24-hydroxylase (24Ohase) gene promoter; assay: In vitro transcription assay (24-hydroxylase promoter luciferase reporter in ROS 17/2.8 bone cells); assay type: cell-based; conditions: for EC50: ROS 17/2.8 cells, 24-hydroxylase gene, FIG. 3, read-out: EC50, transcriptional activity in bone cells
Method: Transcription activity was measured in ROS 17/2.8 (bone) cells that were stably transfected with a 24-hydroxylase (24Ohase) gene promoter upstream of a luciferase reporter gene (Arbour et al., 1998). Cells were given a range of doses. Sixteen hours after dosing the cells were harvested and luciferase activities were measured using a luminometer.
RLU=relative luciferase units.

[3] = Bone calcium mobilization (serum calcium) in vitamin D-deficient rats; assay type: in vivo, rat; conditions: ip, 4 consecutive days, rats on 0.02% Ca diet
Method: as §1

HL-60 cells = assay: HL-60 differentiation (nitro blue tetrazolium reduction); assay type: cell-based, human; conditions: for EC50: HL-60 cells into monocytes, FIG. 2, read-out: EC50, HL-60 cell differentiation
Method: The study drugs were dissolved in ethanol and the concentrations determined using UV spectrophotometry. Serial dilutions were prepared so that a range of drug concentrations could be tested without changing the final concentration of ethanol (≦0.2%) present in the cell cultures.
Human promyelocytic leukemia (HL60) cells were grown in RPMI-1640 medium containing 10% fetal bovine serum. The cells were incubated at 37° C. in the presence of 5% CO2.
HL60 cells were plated at 1.2×10^5 cells/ml. Eighteen hours after plating, cells in duplicate were treated with drug. Four days later, the cells were harvested and a nitro blue tetrazolium reduction assay was performed (Collins et al., 1979; J. Exp. Med. 149:969-974). The percentage of differentiated cells was determined by counting a total of 200 cells and recording the number that contained intracellular black-blue formazan deposits. Verification of differentiation to monocytic cells was determined by measuring phagocytic activity (data not shown).

[4] = biological target: T1, full-length recombinant rat vitamin D receptor (Rattus norvegicus, UniProt P13053); assay: Vitamin D receptor binding (competition with [3H]-1,25(OH)2D3)
T1 construct: Full-length recombinant rat receptor was expressed in E. coli BL21 (DE3) Codon Plus RIL cells; histidine tag (C); made in house; host or cells: E. coli BL21 (DE3) Codon Plus RIL
T1 sequence (P13053 1-423): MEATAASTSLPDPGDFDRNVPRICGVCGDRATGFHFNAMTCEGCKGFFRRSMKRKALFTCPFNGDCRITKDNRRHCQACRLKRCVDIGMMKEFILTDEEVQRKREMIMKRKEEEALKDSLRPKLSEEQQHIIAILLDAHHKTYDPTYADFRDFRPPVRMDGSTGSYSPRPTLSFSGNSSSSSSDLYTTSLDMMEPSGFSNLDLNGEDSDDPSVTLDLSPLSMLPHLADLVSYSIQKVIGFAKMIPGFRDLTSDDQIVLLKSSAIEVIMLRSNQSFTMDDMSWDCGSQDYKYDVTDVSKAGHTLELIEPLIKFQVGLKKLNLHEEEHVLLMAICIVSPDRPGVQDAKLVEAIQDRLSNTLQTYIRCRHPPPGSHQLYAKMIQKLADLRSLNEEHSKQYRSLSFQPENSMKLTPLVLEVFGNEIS
Method: Full-length recombinant rat receptor was expressed in E. coli BL21 (DE3) Codon Plus RIL cells and purified to homogeneity using two different column chromatography systems. The first system was a nickel affinity resin that utilizes the C-terminal histidine tag on this protein. The protein that was eluted from this resin was further purified using ion exchange chromatography (S-Sepharose Fast Flow). Aliquots of the purified protein were quick frozen in liquid nitrogen and stored at −80° C. until use. For use in binding assays, the protein was diluted in TEDK50 (50 mM Tris, 1.5 mM EDTA, pH7.4, 5 mM DTT, 150 mM KCl) with 0.1% Chaps detergent. The receptor protein and ligand concentration were optimized such that no more than 20% of the added radiolabeled ligand was bound to the receptor.
Radiolabeled and unlabeled ligands were added to 100 mcl of the diluted protein at a final ethanol concentration of ≦10%, mixed and incubated overnight on ice to reach binding equilibrium. The following day, 100 mcl of hydroxylapatite slurry (50%) was added to each tube and mixed at 10-minute intervals for 30 minutes. The hydroxylapaptite was collected by centrifugation and then washed three times with Tris-EDTA buffer (50 mM Tris, 1.5 mM EDTA, pH 7.4) containing 0.5% Titron X-100. […] Total binding was determined from the tubes containing only radiolabeled ligand.

## C=C1/C(=C\C=C2/CCC[C@]3(C)[C@@H]([C@H](C)CCCC(C)(C)O)CC[C@@H]23)C[C@@H](O)C[C@@H]1O [1,25(OH)2D3, 1α,25-dihydroxyvitamin D3, reference compound]
[1]; 260 pmol/day
  intestinal calcium transport: significant increase
[2]
  EC50: 0.2 nM
[3]; 260 pmol/day
  bone calcium mobilization (serum calcium): increased serum calcium levels
HL-60 cells
  EC50: 3 nM

## C=C1[C@H](O)CC(=C/C=C2\CCC[C@]3(C)[C@@H](C(=C)CC)CC[C@@H]23)C[C@H]1O [MDBE 20, 2-methylene-20(21)-dehydro-19,24,25,26,27-pentanor-1α-hydroxyvitamin D3]
[1]; 7020 pmol/day
  intestinal calcium transport: does not promote intestinal calcium transport
[1]; 35100 pmol/day
  intestinal calcium transport: does not promote intestinal calcium transport
[2]
  EC50: 4 nM
[2]; bone cells, compared to 1,25(OH)2D3
  times less potent than 1,25(OH)2D3 in increasing transcription of the 24-hydroxylase gene: 10 times
[3]; 7020 pmol/day
  bone calcium mobilization (serum calcium): did not result in mobilization of bone calcium
[3]; 35100 pmol/day
  bone calcium mobilization (serum calcium): no substantial effect was seen
HL-60 cells; Homo sapiens
  EC50: 30 nM
HL-60 cells; compared to 1,25(OH)2D3
  times less potent than 1,25(OH)2D3 on HL-60 cell differentiation: about 10 times
[4]; compared to native hormone
  VDR binding activity relative to 1α,25-dihydroxyvitamin D3: about one-half log less active
[4]; full-length recombinant rat VDR, FIG. 1
  Ki: 0.08 nM
